Data published in patent US6297230A, “Cyanoaziridines for treating cancer” (priority 2000, dated 2001).
In brackets after ≈: the same amount, converted by molar mass. Read-outs that look alike come from different tables or passages of the source.

How the values were obtained:
[1] = system: L-1210 leukemia cells (sensitive); assay: MTT growth inhibition, sensitive L-1210 leukemia cells; format: cell-based, mouse; settings: Mus musculus, L1210, 192 h
Method: Tumors are disaggregated into single cell suspensions using mechanical, hypoosmotic, and/or enzymatic (trypsin) methods. The cells are plated at a concentration of 3-5×10^4 per […] well into plastic 96-well plates. Growth medium containing 5-10% (vol/vol) heat-inactivated fetal bovine serum and penicillin/streptomycin (both […]) are added prior to incubation at 37° C. for 6 days. Afterwards the medium containing the drug is removed, the cells are centrifuged in fresh medium or phosphate-buffered saline (pH 7.4). A tetrazolium dye, […]-2,5-diphenyl tetrazolium (MTT), is then added. (Mossman, T., J Immunol 65:55-63, 1983.) This dye forms a colored formazan product upon activation by mitochondrial reductases in viable cells. Typically, the formazan product is solubilized in acid-propanol or DMSO. The intensity of the color is proportional to viable cell numbers and this is quantitated by spectrophotometric absorbance at 570 nm on a micro ELISA plate reader. The results are calibrated in % control absorbance from untreated tumor cells. (Alley, et al., Cancer Res 48:589-601, 1988.) […]
Murine L-1210 Leukemia Cells were first described by Law, et al. from a female DBA/2 mouse exposed to topical methylcholanthrene. (Law, et al., J Natl Cancer Inst 10:179-192, 1949.) The cells represent a lymphocytic lineage and are highly tumorigenic in syngeneic DBA/2 mice, producing lethality typically 10-14 days after inoculation. This cell line has been used extensively to characterize the antitumor activity of chemotherapeutic agents. (Goldin, et al., Cancer Res (Cancer Chemotherapy Screening Data IX) 21:27-92, 1961.) The L-1210 cells have a model 40-41 chromosomes and a very high plating efficiency in suspension cultures in vitro.
(§1) *Drug continuously present for 8 days; IC50 measured by MTT dye

[2] = system: L-1210 MDR leukemia cells; assay: MTT growth inhibition, multidrug-resistant L-1210 leukemia cells; format: cell-based, mouse; settings: for IC50: Mus musculus, L1210, 192 h
Method: (§2) Tumors are disaggregated into single cell suspensions using mechanical, hypoosmotic, and/or enzymatic (trypsin) methods. The cells are plated at a concentration of 3-5×10^4 per […] well into plastic 96-well plates. Growth medium containing 5-10% (vol/vol) heat-inactivated fetal bovine serum and penicillin/streptomycin (both […]) are added prior to incubation at 37° C. for 6 days. Afterwards the medium containing the drug is removed, the cells are centrifuged in fresh medium or phosphate-buffered saline (pH 7.4). A tetrazolium dye, […]-2,5-diphenyl tetrazolium (MTT), is then added. (Mossman, T., J Immunol 65:55-63, 1983.) This dye forms a colored formazan product upon activation by mitochondrial reductases in viable cells. Typically, the formazan product is solubilized in acid-propanol or DMSO. The intensity of the color is proportional to viable cell numbers and this is quantitated by spectrophotometric absorbance at 570 nm on a micro ELISA plate reader. The results are calibrated in % control absorbance from untreated tumor cells. (Alley, et al., Cancer Res 48:589-601, 1988.)
In addition, the imexon analogs have also been tested in a multidrug-resistant (MDR) mouse L-1210 leukemia cell line.
L-1210 MDR Cells represent a multidrug-resistant cell line developed for resistance to the alkylating agent mitomycin C. (Dorr, et al., Biochem Pharmacol 36(19):3115-3120, 1987.) This cell line has the same general growth characteristics of the parental line, but is cross-resistant to numerous natural-product based anticancer agents. This includes anthracyclines such as doxorubicin (Adriamycin®) and vinca alkaloids such as vincristine or vinblastine.
as §1

8226/S myeloma cells = assay: MTT growth inhibition, parental 8226 myeloma cells; format: cell-based, human
Method: (§3) Microculture Tetrazolium (MTT) Assay for Tumor Cells
as §2
(§4) The following unpublished studies were performed in vitro to develop and characterize a human myeloma cell line with resistance to imexon-induced cytotoxicity. The original (parental) 8226 cell line was developed by Matsuoka, et al. (Matsuoka, et al., Proc Soc Exp Biol Med 125:1246-1250, 1967). It is a lymphoblastoid cell line which stains for lambda light immunoglobulin production. It grows in vitro in suspension culture (non-adherent) and forms tumors when injected into SCID mice. (Skehan, et al., J Natl Cancer Inst 82:1107-1112, 1990.)
(§5) One exciting feature of our novel compounds is, that they work on imexon-resistant cells. An imexon-resistant 8226 myeloma cell line was selected by continuously exposing cells to gradually increasing concentrations of imexon up to 3.25 mg/mL. This cell line has slightly longer cell doubling time than 8226 sensitive cells (24 vs 20 hours). […] The dose response curve for imexon continuous exposure was determined using MTT assay. Each data point represents the mean of three experiments performed in 8 replicates.
(§6) We compared IC50 concentrations and there is a 4-fold resistance observed for the 8226/I-R cell line when the cells were continuously exposed to imexon for […] at 37° C. The degree of resistance was relatively unstable in the absence of the drug, with the resistant cells losing substantial resistance when maintained in imexon-free medium for 20 weeks (FIG. 2).
(§7) IC50 was measured by MTT assay. IC50 refer to the concentration by drug that results in 50% growth inhibition. A minimum of 2 assays were performed for each drug following 250 mg/mL imexon is equivalent to 6.5 cGy radiation in sensitive cells.
(§8) Using the colorimetric microculture tetrazolium (MTT) assay, imexon and 25-related analogs were studied for tumor growth inhibition in vitro. Imexon-induced DNA single strand breaks were assessed by alkaline elution. Cells were exposed to imexon for 1 hour prior to start of experiment. The fraction of ^14 C-labeled DNA retained on the filter is plotted against the time of elution. The cells included parental 8226 myeloma cells and the 8226 imexon-resistant cells exposed to drug (imexon or analog) continuously for 10 days at 37° C. At the end of the exposure period, the cells were analyzed for viability using the formazan-forming tetrazolium dye (MTT) assay.

8226/I-R myeloma cells = assay: MTT growth inhibition, imexon-resistant 8226 myeloma cells; format: cell-based, human; settings: for Fold Resistance of IC50 R/IC50 's: imexon-resistant vs sensitive 8226; for Cross-resistance of imexon-resistant cells: 8226 imexon-resistant cells
Method: as §3, §2, §4, §5, §6, §7, §8

[3] = system: OVCAR-3 ovarian carcinoma cells; settings: clinically relevant concentrations in vitro; cited from earlier work
WiDr MITOX cells = settings: cited from earlier work
[4] = system: L-1210 MDR leukemia cells; settings: cited from earlier work
[5] = Homo sapiens, Table 5, Sensitive (parental) 8226, read-out: IC50
[6] = Homo sapiens, Table 5, imexon-resistant 8226, read-out: IC50
[7] = Homo sapiens, 8226/S, MTT, read-out: IC50
[8] = Homo sapiens, 8226/I-R, MTT, read-out: IC50

For N#CC1CN1C(=O)Nc1ccc(Cl)c(Cl)c1 (centres unmarked) [AMP 408, 2-Cyanoaziridine-1-[N-(3,4-dichlorophenyl)]carboxamide], the IC50 ([1]; Sensitive L-1210, drug continuously present 8 days, read-out: IC50) was 0.7 µg/mL (≈ 2.73 µM), the “Fold Resistance of IC50 's (MDR/S)” value ([2]; L-1210 MDR vs sensitive, 11520 min) was 2.7 and the IC50 ([2]; MDR L-1210, drug continuously present 8 days, read-out: IC50) was 1.9 µg/mL (≈ 7.42 µM). The IC50 (8226/S myeloma cells; [5]) was 0.27 µg/mL, the “Enhanced potency: decrease in IC50 against myeloma cell growth” value (8226/S myeloma cells; compared with imexon) was greater than 40% and the IC50 (8226/I-R myeloma cells; [6]) was 0.68 µg/mL. For the same compound, the “Fold Resistance of IC50 R/IC50 's” value (8226/I-R myeloma cells; Table 5) was 2.5.
Work on N#CC1CN1C(N)=O (centres unmarked) [AMP 409, 2-cyanoaziridine-1-carboxamide, reference compound] yielded an IC50 [1] greater than 10 µg/mL, an IC50 [2] greater than 10 µg/mL and an IC50 (8226/S myeloma cells; [5]) of 32 µg/mL. The IC50 (8226/I-R myeloma cells; [6]) was 48 µg/mL and the “Fold Resistance of IC50 R/IC50 's” value (8226/I-R myeloma cells; Table 5) was 1.5.
In the case of N.N.O=C([O-])C1(C(=O)[O-])CCC1.[Pt+2] [Carboplatin, reference compound], the IC50 (8226/S myeloma cells; 8226/S, MTT, read-out: IC50) is reported as 9700 nM, the IC50 (8226/I-R myeloma cells; 8226/I-R, MTT, read-out: IC50) is reported as 16000 nM and the “Cross-resistance of imexon-resistant cells” value (8226/I-R myeloma cells; MTT) is reported as “partial cross-resistance”. For the same compound, the “Fold Resistance (IC50 resistant cells/IC50 sensitive cells)” value (8226/I-R myeloma cells; Table 4, 8226/I-R vs 8226/S) was 1.65.
For N.N.[Cl][Pt][Cl] [Cisplatin, reference compound], the “Resistance of OVCAR-3” value [3] is given as “resistant in vitro to clinically relevant concentrations”, the IC50 (8226/S myeloma cells; 8226/S, MTT, read-out: IC50) is given as 1100 nM and the IC50 (8226/I-R myeloma cells; 8226/I-R, MTT, read-out: IC50) is given as 2000 nM. For the same compound, the “Cross-resistance of imexon-resistant cells” value (8226/I-R myeloma cells; MTT) was “partial cross-resistance” and the “Fold Resistance (IC50 resistant cells/IC50 sensitive cells)” value (8226/I-R myeloma cells; Table 4, 8226/I-R vs 8226/S) was 1.85.
For N[C@@H](Cc1ccc(N(CCCl)CCCl)cc1)C(=O)O [Melphalan, reference compound], the “Resistance of OVCAR-3” value [3] is given as “resistant in vitro to clinically relevant concentrations”, the IC50 (8226/S myeloma cells; Homo sapiens) is given as 62 nM and the IC50 (8226/I-R myeloma cells; Homo sapiens) is given as 5300 nM. For the same compound, the “Fold Resistance (IC50 resistant cells/IC50 sensitive cells)” value (8226/I-R myeloma cells; Table 4, 8226/I-R vs 8226/S) was 0.81.
In the case of CO[C@@]12[C@H](COC(N)=O)C3=C(C(=O)C(C)=C(N)C3=O)N1C[C@@H]1N[C@@H]12 [Mitomycin C, reference compound], the IC50 (8226/S myeloma cells; [7]) is reported as 66 nM, the “Cross-resistance of imexon-resistant cells” value (8226/I-R myeloma cells; MTT) is reported as “partial resistance” and the IC50 (8226/I-R myeloma cells; [8]) is reported as 99 nM. The “Fold Resistance (IC50 resistant cells/IC50 sensitive cells)” value (8226/I-R myeloma cells; human, 8226 myeloma cells) was 1.50.
In the case of CC[C@]1(O)C[C@H]2CN(CCc3c([nH]c4ccccc34)[C@@](C(=O)OC)(c3cc4c(cc3OC)N(C=O)[C@H]3[C@@](O)(C(=O)OC)[C@H](OC(C)=O)[C@]5(CC)C=CCN6CC[C@]43[C@@H]65)C2)C1 [Vincristine, reference compound], the “Fold resistance of WiDr MITOX cells” value (WiDr MITOX cells) is given as 2 fold, the IC50 (8226/S myeloma cells; [7]) is given as 2.8 nM and the “Cross-resistance of imexon-resistant cells” value (8226/I-R myeloma cells; MTT) is given as “remains sensitive”. For the same compound, the IC50 (8226/I-R myeloma cells; [8]) was 2.4 nM, the “Fold Resistance (IC50 resistant cells/IC50 sensitive cells)” value (8226/I-R myeloma cells; Table 4, 8226/I-R vs 8226/S) was 0.88 and the “Cross-resistance of L-1210 MDR” value [4] was “cross-resistant”.
For O=C1c2c(O)ccc(O)c2C(=O)c2c(NCCNCCO)ccc(NCCNCCO)c21 [mitoxantrone], the “Fold resistance of WiDr MITOX cells” value (WiDr MITOX cells) is listed as 21 fold.
For CC[C@]1(O)C[C@@H]2CN(CCc3c([nH]c4ccccc34)[C@@](C(=O)OC)(c3cc4c(cc3OC)N(C)[C@H]3[C@@](O)(C(=O)OC)[C@H](OC(C)=O)[C@]5(CC)C=CCN6CC[C@]43[C@@H]65)C2)C1 [vinblastine], the “Cross-resistance of L-1210 MDR” value [4] is given as “cross-resistant”.
In the case of Bleomycin [reference compound], the IC50 (8226/S myeloma cells; 8226/S, MTT, bleomycin) is reported as 7.0 µg/mL, the IC50 (8226/I-R myeloma cells; 8226/I-R, MTT, bleomycin) is reported as 7.8 µg/mL and the “Cross-resistance of imexon-resistant cells” value (8226/I-R myeloma cells; MTT) is reported as “remains sensitive”. The “Fold Resistance (IC50 resistant cells/IC50 sensitive cells)” value (8226/I-R myeloma cells; Table 4, 8226/I-R vs 8226/S) was 1.11.
